In patent publication US10597388B2, “Pyridazinone herbicides” (FMC CORPORATION, priority 2014, dated 2020):

Key:
Format in all cases: in vivo
[1] = system: galium (catchweed bedstraw, Galium aparine); assay: Test C greenhouse herbicide test, pre- and postemergence
From the text: (§1) Seeds of plant species selected from blackgrass (Alopecurus myosuroides), ryegrass, Italian (Italian ryegrass, Lolium multiflorum), wheat (winter wheat, Triticum aestivum), galium (catchweed bedstraw, Galium aparine), corn (Zea mays), large crabgrass, large (large crabgrass, Digitaria sanguinalis), foxtail, giant (giant foxtail, Setaria faberii), johnsongrass (Sorghum halepense), lambsquarters (Chenopodium album), morningglory (Ipomoea coccinea), nutsedge, yellow (yellow nutsedge, Cyperus esculentus), pigweed (Amaranthus retroflexus), ragweed (common ragweed, Ambrosia elatior), soybean (Glycine max), barnyardgrass (Echinochloa crus-galli), oilseed rape (Brassica napus), waterhemp (common waterhemp, Amaranthus rudis), and velvetleaf (Abutilon theophrasti) were planted into a blend of loam soil and sand and treated preemergence with test chemicals formulated in a non-phytotoxic solvent mixture which included a surfactant.
(§2) At the same time, plants selected from these crop and weed species and also chickweed (common chickweed, Stellaria media), kochia (Kochia scoparia), and oat, wild (wild oat, Avena fatua), were planted in pots containing Redi-Earth® planting medium (Scotts Company, 14111 Scottslawn Road, Marysville, Ohio 43041) comprising spaghnum peat moss, vermiculite, wetting agent and starter nutrients and treated with postemergence applications of test chemicals formulated in the same manner. Plants ranged in height from 2 to 18 cm (1- to 4-leaf stage) for postemergence treatments. Treated plants and controls were maintained in a greenhouse for 13 to 15 d, after which time all species were compared to controls and visually evaluated. Plant response ratings, summarized in Table C, are based on a scale of 0 to 100 where 0 is no effect and 100 is complete control. A dash (-) response means no test result.

[2] = system: velvetleaf (Abutilon theophrasti); assay: as above
From the text: as §1, §2

[3] = system: barnyardgrass (Echinochloa crus-galli); assay: as above
From the text: as §1, §2

[4] = system: kochia (Kochia scoparia); assay: Test A greenhouse herbicide test, pre- and postemergence
In short: (§3)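 Seeds sown in loam–sand blend got a preemergence directed soil spray of compound in non-phytotoxic solvent with surfactant. Postemergence treatment was given at 2–10 cm, one- to two-leaf stage. After ~10 d in greenhouse, injury was rated visually vs untreated controls, 0 (no effect) to 100 (complete control).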

[5] = system: foxtail, giant (giant foxtail, Setaria faberii); assay: as above
In short: as §3

[6] = system: corn (Zea mays); assay: as above; conditions: Postemergence
In short: as §3

[7] = system: ragweed (common ragweed, Ambrosia elatior); assay: as above
In short: as §3

[8] = system: ryegrass, Italian (Italian ryegrass, Lolium multiflorum); assay: as above
In short: as §3

[9] = system: barnyardgrass (Echinochloa crus-galli); assay: as above
In short: as §3

[10] = system: wheat (Triticum aestivum); assay: as above; conditions: Postemergence
In short: as §3

[11] = system: pigweed (Amaranthus retroflexus); assay: as above
In short: as §3

[12] = Postemergence, 31 g ai/ha, scale 0 to 100 (0 no effect, 100 complete control)
[13] = Postemergence, 62 g ai/ha, 0 to 100 scale (0 no effect, 100 complete control)
[14] = Postemergence, 250 g ai/ha, scale 0 to 100, 0 is no effect, 100 is complete control
[15] = postemergence, 125 g ai/ha, scale 0 to 100, 0 no effect, 100 complete control
[16] = Postemergence, 125 g ai/ha, 0 to 100 scale, 0 no effect, 100 complete control
[17] = Postemergence, 500 g ai/ha, visual rating after approx. 10 d, 0 to 100 scale (0 no effect, 100 complete control)
[18] = Preemergence, 125 g ai/ha, visual injury rating, 0 to 100 scale (0 no effect, 100 complete control), approx. 10 d
[19] = Preemergence, 500 g ai/ha, 0 to 100 scale where 0 is no effect and 100 is complete control
[20] = 125 g ai/ha, 0 to 100 scale, 0 no effect, 100 complete control
[21] = 500 g ai/ha, visual rating after approx. 10 d, 0 to 100 scale (0 no effect, 100 complete control)
[22] = Postemergence, 125 g ai/ha, scale 0 to 100, 0 is no effect, 100 is complete control
[23] = Postemergence, 250 g ai/ha, scale 0 to 100, 0 no effect, 100 complete control, 13 to 15 d
[24] = Preemergence, 31 g ai/ha, scale 0 to 100, 0 is no effect, 100 is complete control
[25] = Preemergence, 62 g ai/ha, scale 0 to 100, 0 is no effect, 100 is complete control
[26] = Preemergence, 125 g ai/ha, scale 0 to 100, 0 is no effect, 100 is complete control
[27] = Preemergence, 250 g ai/ha, scale 0 to 100 (0 no effect, 100 complete control)
[28] = postemergence, 62 g ai/ha, scale 0 to 100, 0 no effect, 100 complete control
[29] = Postemergence, 125 g ai/ha, 0 to 100 scale where 0 is no effect and 100 is complete control
[30] = Preemergence, 125 g ai/ha, 0 to 100 scale where 0 is no effect and 100 is complete control
[31] = 125 g ai/ha, 0 to 100 scale where 0 is no effect and 100 is complete control
[32] = Postemergence, 500 g ai/ha, 0 to 100 scale, 0 is no effect, 100 is complete control
[33] = 500 g ai/ha, 0 to 100 scale, 0 is no effect, 100 is complete control

Cc1ccc2ccccc2c1-c1c(OC(=O)N2CCOCC2)c(Br)nn(C)c1=O [Compound 176] was tested, and the “Plant response rating, Galium” value [1, 12] was 0, the “Galium plant response rating” value [1, 13] was 5 and the “Plant response rating, Galium” value [1, 14] was 60. The “Galium plant response rating” value [1, 15] was 60, the “Plant response rating, Velvetleaf” value [2, 12] was 0 and the “Velvetleaf plant response rating” value [2, 13] was 25. For the same compound, the “Plant response rating, Velvetleaf” value [2, 14] was 80, the “Velvetleaf plant response rating” value [2, 15] was 75 and the “Plant response rating, Barnyardgrass” value [3, 12] was 5. For the same compound, the “Barnyardgrass plant response rating” value [3, 13] was 5, the “Plant response rating, Barnyardgrass” value [3, 14] was 20 and the “Barnyardgrass plant response rating” value [3, 15] was 10. The “Plant response rating, Kochia” value [4, 16] was 30, the “Plant response rating, Kochia” value [4, 17] was 70 and the “Plant response rating, Kochia” value [4, 18] was 0. The “Plant response rating, Kochia” value [4, 19] was 20, the “Plant response rating, Foxtail, Giant” value [5, 16] was 0 and the “Plant response rating, Foxtail, Giant” value [5, 17] was 10. The “Plant response rating, Foxtail, Giant” value [5, 18] was 0, the “Plant response rating, Foxtail, Giant” value [5, 19] was 10 and the “Plant response rating, Corn” value [6, 20] was 0. For the same compound, the “Plant response rating, Corn” value [6, 21] was 0, the “Plant response rating, Ragweed” value [7, 16] was 40 and the “Plant response rating, Ragweed” value [7, 17] was 100. For the same compound, the “Plant response rating, Ragweed” value [7, 18] was 20, the “Plant response rating, Ragweed” value [7, 19] was 70 and the “Plant response rating, Ryegrass, Italian” value [8, 16] was 30. For the same compound, the “Plant response rating, Ryegrass, Italian” value [8, 17] was 100, the “Plant response rating, Ryegrass, Italian” value [8, 18] was 0 and the “Plant response rating, Ryegrass, Italian” value [8, 19] was 90. For the same compound, the “Plant response rating, Barnyardgrass” value [9, 16] was 0, the “Plant response rating, Barnyardgrass” value [9, 17] was 10 and the “Plant response rating, Barnyardgrass” value [9, 18] was 0. For the same compound, the “Plant response rating, Barnyardgrass” value [9, 19] was 10, the “Plant response rating, Wheat” value [10, 20] was 0 and the “Plant response rating, Wheat” value [10, 21] was 0. For the same compound, the “Plant response rating, Pigweed” value [11, 16] was 30, the “Plant response rating, Pigweed” value [11, 17] was 90 and the “Plant response rating, Pigweed” value [11, 18] was 0. For the same compound, the “Plant response rating, Pigweed” value [11, 19] was 90.
In the case of Cc1sc2ccc(Cl)cc2c1-c1c(OS(C)(=O)=O)c(Cl)nn(C)c1=O [Compound 114], the “Plant response rating, Galium” value [1, 12] is reported as 95, the “Plant response rating, Galium” value [1, 22] is reported as 95 and the “Plant response rating, Galium” value [1, 23] is reported as 95. For the same compound, the “Plant response rating, Galium” value [1, 24] was 98, the “Plant response rating, Galium” value [1, 25] was 98 and the “Plant response rating, Galium” value [1, 26] was 100. The “Galium plant response rating” value [1, 27] was 100, the “Plant response rating, Velvetleaf” value [2, 12] was 25 and the “Plant response rating, Velvetleaf” value [2, 22] was 55. For the same compound, the “Plant response rating, Velvetleaf” value [2, 23] was 85, the “Plant response rating, Velvetleaf” value [2, 24] was 45 and the “Plant response rating, Velvetleaf” value [2, 25] was 60. For the same compound, the “Plant response rating, Velvetleaf” value [2, 26] was 85, the “Velvetleaf plant response rating” value [2, 27] was 100 and the “Plant response rating, Barnyardgrass” value [3, 12] was 30. For the same compound, the “Plant response rating, Barnyardgrass” value [3, 22] was 40, the “Plant response rating, Barnyardgrass” value [3, 23] was 40 and the “Plant response rating, Barnyardgrass” value [3, 24] was 5. For the same compound, the “Plant response rating, Barnyardgrass” value [3, 25] was 10, the “Plant response rating, Barnyardgrass” value [3, 26] was 60 and the “Barnyardgrass plant response rating” value [3, 27] was 95. The “Barnyardgrass plant response rating” value [3, 28] was 35, the “Plant response rating, Kochia” value [4, 29] was 30 and the “Plant response rating, Kochia” value [4, 17] was 60. The “Kochia plant response rating” value [4, 30] was 30, the “Plant response rating, Kochia” value [4, 19] was 100 and the “Plant response rating, Foxtail, Giant” value [5, 29] was 70. For the same compound, the “Plant response rating, Foxtail, Giant” value [5, 17] was 90, the “Foxtail, Giant plant response rating” value [5, 30] was 40 and the “Plant response rating, Foxtail, Giant” value [5, 19] was 90. The “Plant response rating, Corn” value [6, 31] was 0, the “Plant response rating, Corn” value [6, 21] was 30 and the “Plant response rating, Ragweed” value [7, 29] was 70. For the same compound, the “Plant response rating, Ragweed” value [7, 17] was 80, the “Ragweed plant response rating” value [7, 30] was 80 and the “Plant response rating, Ragweed” value [7, 19] was 90. The “Plant response rating, Ryegrass, Italian” value [8, 29] was 90, the “Plant response rating, Ryegrass, Italian” value [8, 17] was 90 and the “Ryegrass, Italian plant response rating” value [8, 30] was 80. For the same compound, the “Plant response rating, Ryegrass, Italian” value [8, 19] was 90, the “Plant response rating, Barnyardgrass” value [9, 29] was 20 and the “Plant response rating, Barnyardgrass” value [9, 17] was 90. For the same compound, the “Barnyardgrass plant response rating” value [9, 30] was 30, the “Plant response rating, Barnyardgrass” value [9, 19] was 80 and the “Plant response rating, Wheat” value [10, 31] was 20. The “Plant response rating, Wheat” value [10, 21] was 40, the “Plant response rating, Pigweed” value [11, 29] was 90 and the “Plant response rating, Pigweed” value [11, 17] was 90. The “Pigweed plant response rating” value [11, 30] was 100 and the “Plant response rating, Pigweed” value [11, 19] was 100.
In the case of C#CCOC(=O)Oc1c(C)nn(C)c(=O)c1-c1c(C)sc2ccc(C)cc12 [Compound 87], the “Plant response rating, Galium” value [1, 22] is reported as 95, the “Plant response rating, Galium” value [1, 23] is reported as 98 and the “Plant response rating, Galium” value [1, 24] is reported as 95. The “Plant response rating, Galium” value [1, 25] was 95, the “Plant response rating, Galium” value [1, 26] was 98 and the “Galium plant response rating” value [1, 27] was 98. The “Galium plant response rating” value [1, 28] was 95, the “Plant response rating, Velvetleaf” value [2, 22] was 90 and the “Plant response rating, Velvetleaf” value [2, 23] was 90. The “Plant response rating, Velvetleaf” value [2, 24] was 55, the “Plant response rating, Velvetleaf” value [2, 25] was 85 and the “Plant response rating, Velvetleaf” value [2, 26] was 90. The “Velvetleaf plant response rating” value [2, 27] was 90, the “Velvetleaf plant response rating” value [2, 28] was 85 and the “Barnyardgrass plant response rating” value ([3]; Postemergence, 31 g ai/ha, 0 to 100 scale (0 no effect, 100 complete control)) was 25. For the same compound, the “Plant response rating, Barnyardgrass” value [3, 22] was 35, the “Plant response rating, Barnyardgrass” value [3, 23] was 45 and the “Plant response rating, Barnyardgrass” value [3, 24] was 5. For the same compound, the “Plant response rating, Barnyardgrass” value [3, 25] was 35, the “Plant response rating, Barnyardgrass” value [3, 26] was 65 and the “Barnyardgrass plant response rating” value [3, 27] was 85. The “Barnyardgrass plant response rating” value [3, 28] was 25, the “Plant response rating, Kochia” value [4, 29] was 90 and the “Kochia plant response rating” value [4, 32] was 90. The “Kochia plant response rating” value [4, 30] was 80, the “Plant response rating, Kochia” value [4, 19] was 90 and the “Plant response rating, Foxtail, Giant” value [5, 29] was 70. The “Foxtail, Giant plant response rating” value [5, 32] was 80, the “Foxtail, Giant plant response rating” value [5, 30] was 80 and the “Plant response rating, Foxtail, Giant” value [5, 19] was 100. For the same compound, the “Plant response rating, Corn” value [6, 31] was 0, the “Corn plant response rating” value [6, 33] was 0 and the “Plant response rating, Ragweed” value [7, 29] was 80. The “Ragweed plant response rating” value [7, 32] was 90, the “Ragweed plant response rating” value [7, 30] was 70 and the “Plant response rating, Ragweed” value [7, 19] was 80. The “Plant response rating, Ryegrass, Italian” value [8, 29] was 80, the “Ryegrass, Italian plant response rating” value [8, 32] was 80 and the “Ryegrass, Italian plant response rating” value [8, 30] was 90. For the same compound, the “Plant response rating, Ryegrass, Italian” value [8, 19] was 100, the “Plant response rating, Barnyardgrass” value [9, 29] was 40 and the “Barnyardgrass plant response rating” value [9, 32] was 80. The “Barnyardgrass plant response rating” value [9, 30] was 50, the “Plant response rating, Barnyardgrass” value [9, 19] was 80 and the “Plant response rating, Wheat” value [10, 31] was 0. The “Wheat plant response rating” value [10, 33] was 0, the “Plant response rating, Pigweed” value [11, 29] was 80 and the “Pigweed plant response rating” value [11, 32] was 90. For the same compound, the “Pigweed plant response rating” value [11, 30] was 100 and the “Plant response rating, Pigweed” value [11, 19] was 100.
